Assay results reported in ChEMBL document CHEMBL5042493, “Enhancing monoamine oxidase B inhibitory activity via chiral fluorination: Structure-activity relationship, biological evaluation, and molecular docking study” (Eur J Med Chem, 2022).
pIC50: −log10 of the molar value.

How the values were obtained:
[1] = biological target: T1, Amine oxidase [flavin-containing] B (Homo sapiens, UniProt P27338); test: Inhibition of recombinant human MAO-B expressed in Sf9 cells preincubated for 15 min followed by addition of benzylamine and measured after 60 min by Luminex assay
T1 sequence (P27338 whole entry): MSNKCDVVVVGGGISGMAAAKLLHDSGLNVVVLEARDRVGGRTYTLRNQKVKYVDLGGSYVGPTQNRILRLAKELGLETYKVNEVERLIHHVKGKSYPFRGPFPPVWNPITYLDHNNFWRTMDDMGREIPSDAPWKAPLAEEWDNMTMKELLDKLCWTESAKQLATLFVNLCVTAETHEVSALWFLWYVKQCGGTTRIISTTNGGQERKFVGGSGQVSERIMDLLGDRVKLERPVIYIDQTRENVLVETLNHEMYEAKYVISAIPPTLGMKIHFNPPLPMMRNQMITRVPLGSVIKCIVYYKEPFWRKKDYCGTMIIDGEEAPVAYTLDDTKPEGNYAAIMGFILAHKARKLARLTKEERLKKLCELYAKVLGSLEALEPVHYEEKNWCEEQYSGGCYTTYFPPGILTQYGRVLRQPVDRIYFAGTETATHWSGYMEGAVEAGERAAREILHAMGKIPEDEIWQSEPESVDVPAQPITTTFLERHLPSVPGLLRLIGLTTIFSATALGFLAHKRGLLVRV

[2] = AUC (0-t) in Sprague dawley rat at 5 mg/kg, po measured upto 24 hrs; assay type: ADME, organism-based; design: route oral, dose 5 mg/kg, time <=24; settings: in vivo
[3] = Half life in Sprague dawley rat at 5 mg/kg, po measured upto 24 hrs; assay type: ADME, organism-based; settings: in vivo
[4] = AUC (0-t) in Sprague dawley rat at 1 mg/kg, iv measured upto 24 hrs; assay type: ADME, organism-based; design: route intravenous, dose 1 mg/kg, time <=24; settings: in vivo
[5] = Cmax in Cynomolgus monkey rat at 5 mg/kg, po measured upto 24 hrs; assay type: ADME, organism-based, Macaca fascicularis; design: route oral, dose 5 mg/kg, time <=24; settings: in vivo
[6] = Cmax in Cynomolgus monkey at 1 mg/kg, iv measured upto 24 hrs; assay type: ADME, organism-based, Macaca fascicularis; design: route intravenous, dose 1 mg/kg, time <=24; settings: in vivo
[7] = Cmax in Sprague dawley rat at 5 mg/kg, po measured upto 24 hrs; assay type: ADME, organism-based; design: route oral, dose 5 mg/kg, time <=24; settings: in vivo
[8] = Oral bioavailability in Cynomolgus monkey rat at 5 mg/kg measured upto 24 hrs; assay type: ADME, organism-based, Macaca fascicularis; settings: in vivo
[9] = AUC (0-t) in Cynomolgus monkey at 1 mg/kg, iv measured upto 24 hrs; assay type: ADME, organism-based, Macaca fascicularis; design: route intravenous, dose 1 mg/kg, time <=24; settings: in vivo, 24 h
[10] = Half life in Cynomolgus monkey rat at 5 mg/kg, po measured upto 24 hrs; assay type: ADME, organism-based, Macaca fascicularis; settings: in vivo
[11] = Clearance in Sprague dawley rat at 1 mg/kg, iv measured upto 24 hrs; assay type: ADME, organism-based; settings: in vivo
[12] = Volume of distribution at steady state in Cynomolgus monkey at 1 mg/kg, iv measured upto 24 hrs; assay type: ADME, organism-based, Macaca fascicularis; settings: in vivo, read-out: Vdss
[13] = Toxicity in MPTP-induced C57BL/6 mouse model of Parkinson's disease assessed as effect on locomotor activity by measuring rearing activity at 10 mg/kg, ip pretreated for 15 mins followed by MPTP challenge and measured after 5 days post MPTP challenge; assay type: organism-based; settings: in vivo, 120 h, time 5 day
[14] = Half life in Cynomolgus monkey at 1 mg/kg, iv measured upto 24 hrs; assay type: ADME, organism-based, Macaca fascicularis; settings: in vivo
[15] = Oral bioavailability in Sprague dawley rat at 5 mg/kg measured upto 24 hrs; assay type: ADME, organism-based; settings: in vivo
[16] = AUC (0-t) in Cynomolgus monkey rat at 5 mg/kg, po measured upto 24 hrs; assay type: ADME, organism-based, Macaca fascicularis; design: route oral, dose 5 mg/kg, time <=24; settings: in vivo
[17] = Half life in Sprague dawley rat at 1 mg/kg, iv measured upto 24 hrs; assay type: ADME, organism-based; settings: in vivo
[18] = Cmax in Sprague dawley rat at 1 mg/kg, iv measured upto 24 hrs; assay type: ADME, organism-based; design: route intravenous, dose 1 mg/kg, time <=24; settings: in vivo
[19] = Volume of distribution at steady state in Sprague dawley rat at 1 mg/kg, iv measured upto 24 hrs; assay type: ADME, organism-based; settings: in vivo, read-out: Vdss
[20] = biological target: T2, Amine oxidase [flavin-containing] A (Homo sapiens, UniProt P21397); test: Inhibition of recombinant human MAO-A expressed in Sf9 cells preincubated for 15 min followed by addition of p-tyramine and measured after 60 min by Luminex assay
T2 sequence (P21397 whole entry): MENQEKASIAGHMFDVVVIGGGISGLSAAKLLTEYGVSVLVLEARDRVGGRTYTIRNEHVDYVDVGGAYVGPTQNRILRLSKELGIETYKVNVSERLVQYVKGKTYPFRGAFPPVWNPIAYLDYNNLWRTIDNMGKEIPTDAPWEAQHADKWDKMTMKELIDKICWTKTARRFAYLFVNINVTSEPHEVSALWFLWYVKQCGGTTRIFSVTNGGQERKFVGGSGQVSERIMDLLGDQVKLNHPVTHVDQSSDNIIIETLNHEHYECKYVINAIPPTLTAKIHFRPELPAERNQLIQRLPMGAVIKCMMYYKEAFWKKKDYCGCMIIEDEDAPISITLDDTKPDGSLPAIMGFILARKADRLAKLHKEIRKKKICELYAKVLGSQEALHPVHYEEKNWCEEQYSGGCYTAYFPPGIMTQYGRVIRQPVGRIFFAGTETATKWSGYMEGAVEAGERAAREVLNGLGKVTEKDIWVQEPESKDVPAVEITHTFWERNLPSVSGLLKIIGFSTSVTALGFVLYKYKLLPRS

Homo sapiens = species: Homo sapiens; test: Selectivity index, ratio of IC50 for recombinant human MAO-A expressed in Sf9 cells to IC50 for recombinant human MAO-B expressed in Sf9 cells

SMILES: Cc1cc(OCc2cccc(F)c2)ccc1CN1C[C@H](F)C[C@H]1C(N)=O
- pIC50 [1]: < 5.00

SMILES: C[C@H](NCc1ccc(OCc2cccc(F)c2)cc1)C(N)=O [SAFINAMIDE]
- AUC(0-t) at 24 h [2]: 795 ng·h/mL
- half-life [3]: 1.02 h
- AUC(0-t) at 24 h [4]: 253 ng·h/mL
- Cmax [5]: 1970 ng/mL
- Cmax [6]: 1080 ng/mL
- Cmax [7]: 423 ng/mL
- bioavailability [8]: 111%
- AUCt [9]: 2120 ng·h/mL
- half-life [10]: 4.6 h
- clearance [11]: 65.5 mL/min/kg
- Vd [12]: 7.15 L/kg
- Activity [13]: Non-Toxic
- half-life [14]: 2.74 h
- bioavailability [15]: 63.2%
- AUC(0-t) at 24 h [16]: 13100 ng·h/mL
- half-life [17]: 1.03 h
- Cmax [18]: 282 ng/mL
- Vd [19]: 4.21 L/kg

SMILES: NC(=O)[C@@H]1C[C@H](F)CN1Cc1ccc(OCc2cccc(F)c2)cc1F
- pIC50 [20]: 4.53
- Ratio IC50 (Homo sapiens): 979

SMILES: NC(=O)[C@@H]1CCCN1Cc1ccc(OCc2cccc(F)c2)cc1
- AUC(0-t) at 24 h [2]: 284 ng·h/mL
- half-life [3]: 1.27 h
- AUC(0-t) at 24 h [4]: 347 ng·h/mL
- Cmax [7]: 163 ng/mL
- Ratio IC50 (Homo sapiens): 168
- clearance [11]: 47.1 mL/min/kg
- bioavailability [15]: 16.3%
- half-life [17]: 0.37 h
- Cmax [18]: 809 ng/mL
- Vd [19]: 1.11 L/kg

SMILES: NC(=O)[C@@H]1C[C@@H](F)CN1Cc1ccc(OCc2cccc(F)c2)cc1Cl
- pIC50 [1]: < 5.00

SMILES: NC(=O)[C@@H]1C[C@H](O)CN1Cc1ccc(OCc2cccc(F)c2)cc1
- pIC50 [20]: 4.07
- Ratio IC50 (Homo sapiens): 196
- pIC50 [1]: 6.37

SMILES: NC(=O)[C@@H]1C[C@@H](F)CN1Cc1ccc(OCc2cccc(F)c2)cc1F
- pIC50 [20]: 4.55
- Ratio IC50 (Homo sapiens): 13
- pIC50 [1]: 5.66

SMILES: Cc1cc(OCc2cccc(F)c2)ccc1CN1C[C@@H](F)C[C@H]1C(N)=O
- pIC50 [20]: 4.69
- Ratio IC50 (Homo sapiens): 25
- pIC50 [1]: 6.09

SMILES: NC(=O)[C@@H]1C[C@H](F)CN1Cc1ccc(OCc2cccc(F)c2)cc1Cl
- pIC50 [20]: 5.29
- Ratio IC50 (Homo sapiens): 37
- pIC50 [1]: 6.85

SMILES: NC(=O)[C@@H]1C[C@@H](O)CN1Cc1ccc(OCc2cccc(F)c2)cc1
- pIC50 [1]: < 5.00

SMILES: NC(=O)[C@H]1C[C@@H](F)CN1Cc1ccc(OCc2cccc(F)c2)cc1
- pIC50 [1]: < 5.00

SMILES: NC(=O)[C@H]1C[C@H](F)CN1Cc1ccc(OCc2cccc(F)c2)cc1
- pIC50 [20]: 5.17
- Ratio IC50 (Homo sapiens): 10
- pIC50 [1]: 6.15

SMILES: NC(=O)[C@@H]1C[C@@H](F)CN1Cc1ccc(OCc2cccc(F)c2)cc1
- pIC50 [20]: 4.62
- Ratio IC50 (Homo sapiens): 31
- pIC50 [1]: 6.11

SMILES: C[C@@H]1C[C@@H](C(N)=O)N(Cc2ccc(OCc3cccc(F)c3)cc2)C1
- pIC50 [20]: 4.38
- Ratio IC50 (Homo sapiens): 19
- pIC50 [1]: 5.66

SMILES: C[C@H]1C[C@@H](C(N)=O)N(Cc2ccc(OCc3cccc(F)c3)cc2)C1
- AUC(0-t) at 24 h [2]: 176 ng·h/mL
- half-life [3]: 0.96 h
- AUC(0-t) at 24 h [4]: 209 ng·h/mL
- pIC50 [20]: 4.56
- Cmax [7]: 69.1 ng/mL
- Ratio IC50 (Homo sapiens): 335
- pIC50 [1]: 7.09
- clearance [11]: 79.1 mL/min/kg
- bioavailability [15]: 16.9%
- half-life [17]: 0.73 h
- Cmax [18]: 174 ng/mL
- Vd [19]: 4.56 L/kg
